Results from patent US20190151312A1, “HEPARAN SULFATE BIOSYNTHESIS INHIBITORS FOR THE TREATMENT OF DISEASES” (BioMarin Pharmaceutical Inc., priority 2014, published 2019).

tested on: GM01896 cells (MPS II dermal fibroblasts); assay: Assay 1: MPS cellular assay, MPS II (heparan sulfate disaccharide biomarkers by LC-MS); assay type: cell-based, human; conditions: Assay 1 for MPS II, heparan sulfate disaccharide biomarkers (I2a4, I2a6, I2S0 and/or I2S6), read-out: IC50 Range
Protocol: Dermal fibroblasts from humans with an MPS disorder and from healthy donors are grown. Cells are expanded and kept in culture for analysis. Human foreskin fibroblasts can be obtained from the American Type Culture Collection (CRL-1634). Human dermal fibroblasts derived from biopsies of individuals are purchased from Coriell Institute: clinically healthy individuals, GM00408, GM00409, GM00200 (clinically unaffected sibling of an individual with metachromatic leukodystrophy), GM05659, GM08398, and GM15871 (clinically unaffected sibling of an individual with unclassified Ehlers-Danlos syndrome); heterozygous MPS I carriers, GM01392, GM01393 and GM0003; homozygous individuals affected with MPS I, GM06214, GM11495, GM00034, GM01391 and GM01256; individuals with MPS II, GM01896, GM03181, GM00615 and GM00298; individuals with MPS IIIA, GM00879, GM00643, GM00934, GM06110 and GM00629; MPS IIIB, GM01426; MPS IIIC, GM05157; MPS IIID, GM05093; and MPS VII, GM00121. All cells are grown in DMEM containing 50 U ml-1 penicillin, […] ml-1 streptomycin, 2 mM glutamine and 10% FBS. Cells are seeded on 15-cm-diameter tissue culture dishes, grown to confluence and maintained in culture for analysis. Sulfamidase activity in cell extracts is measured with 4-methylumbelliferyl-α-D-N-sulfoglucosaminide according the vendors instructions substituting Tris-acetate buffer (pH 6.5; Moscerdam).
Cells are treated with a compound of the invention at a concentration at or below 30 μM for 4 to 21 days. Cell monolayers are washed with phosphate buffered saline and detached by treatment with GIBCO trypsin-EDTA solution (Invitrogen). After centrifugation, the supernatant is removed and the cells are lysed in 0.5 mL of 0.1 N sodium hydroxide. The amount of protein is determined by bicinchoninic acid (BCA assay, Thermo Scientific). GAGs are isolated by anion exchange chromatography and digested with glycosaminoglycan lyases (heparinases I, II, and III, IBEX).
Enzymatically depolymerized GAG preparations are differentially mass labeled by reductive amination with [^12C6]aniline. Briefly, heparan sulfate disaccharides (1-10 pmol) are dried down in a centrifugal evaporator and reacted with [^12C6]aniline or [^13C6]aniline (15 μL, 165 μmol) and 15 μL of 1 M NaCNBH3 (Sigma-Aldrich) freshly prepared in dimethylsulfoxide/acetic acid (7:3, v/v) is added to each sample. Reactions are carried out at 37° C. for 16 h and then dried in a centrifugal evaporator. Unsubstituted amines are reacted with propionic anhydride (Sigma-Aldrich). Dried samples are reconstituted in 20 μL of 50% methanol, and 3 μL of propionic anhydride (Sigma-Aldrich, 23.3 μmol) is added. Reactions are carried out at ˜23° C. for 2 h. Acylated disaccharides are subsequently aniline tagged as described above. Each sample is mixed with commercially available standard unsaturated disaccharides (Seikagaku), standard N-sulfoglucosamine, glucosamine-6-sulfate, N-acetylgalactosamine-4-sulfate and N-acetylgalactosamine-6-sulfate (Sigma-Aldrich), and/or synthesized α-L-idopyranosyluronate-(1,4)-2-N-acetyl-2-deoxy-α/β-D-glucopyranoside (I0S0). All standards are tagged with [^13C6]aniline (Sigma-Aldrich). Samples are then analyzed by LC-MS using an LTQ Orbitrap Discovery electrospray ionization mass spectrometer (Thermo Scientific) equipped with quaternary HPLC pump (Finnigan Surveyor MS pump) and a reverse-phase capillary column as described in J. Biol. Chem. 2008, 283(48), 33674.
MPS II: Assay 1, as described above, was used to determine activity for MPS II using GM01896 cells. […] Extracted ion chromatograms were obtained. Cell viability was monitored using alamar blue or ATP quantification. IC50's were calculated using curve fitting within the ChemInnovation CBIS database system.

| Compound | IC50 |
| --- | --- |
| Cn1ccc2ccc(Nc3cc(-c4ccc5c(CCCN6CCCC6)nn(C)c5c4)nc(N4CCOCC4)n3)cc21 [(1-methylindol-6-yl) {6-[1-methyl-3-(3-pyrrolidinylpropyl)(1H-indazol-6-yl)]-2-morpholin-4-ylpyrimidin-4-yl}amine] | 500 to 1000 nM |
| CN(C)CCCn1cnc2ccc(-c3cc(Nc4ccc(Cl)cc4)nc(N4CCOCC4)n3)cc21 [[3-(6-{6-[(4-chlorophenyl)amino]-2-morpholin-4-ylpyrimidin-4-yl}benzimidazolyl)propyl]dimethylamine] | 500 to 1000 nM |

same assay, conditions: Homo sapiens, Fibroblast, Assay 1 for MPS II, heparan sulfate disaccharide biomarkers (I2a4, I2a6, I2S0 and/or I2S6), read-out: IC50 Range

| Compound | IC50 |
| --- | --- |
| CNC(=O)c1ccc(Nc2cc(-c3ccc4ncn(CCN5CCOCC5)c4c3)nc(N3CCOCC3)n2)cc1 [N-methyl[4-({2-morpholin-4-yl-6-[1-(2-morpholin-4-ylethyl)benzimidazol-6-yl]pyrimidin-4-yl}amino)phenyl]carboxamide] | 500 to 1000 nM |
| CNC(=O)c1ccc(Nc2cc(-c3ccc4c(cnn4C)c3)nc(N3CCOCC3)n2)cc1 [N-methyl(4-{[6-(1-methyl(1H-indazol-5-yl))-2-morpholin-4-ylpyrimidin-4-yl]amino}phenyl)carboxamide] | 500 to 1000 nM |
| Cc1nn(C)c2cc(-c3cc(Nc4ccc5nn(C)cc5c4)nc(N4CCOCC4)n3)ccc12 [[6-(1,3-dimethyl(1H-indazol-6-yl))-2-morpholin-4-ylpyrimidin-4-yl](2-methyl(2H-indazol-5-yl))amine] | 1000 to 5000 nM |
| Cc1nn(CCCN2CCCC2)c2cc(-c3cc(Nc4ccc(Cl)cc4)nc(N4CCOCC4)n3)ccc12 [(4-chlorophenyl){6-[3-methyl-1-(3-pyrrolidinylpropyl)(1H-indazol-6-yl)]-2-morpholin-4-ylpyrimidin-4-yl}amine] | 500 to 1000 nM |
| Cc1nn(C)c2cc(-c3cc(Nc4ccc(Cl)cc4)nc(N4CCOCC4)n3)cnc12 [[6-(1,3-dimethylpyrazolo[4,5-b]pyridin-6-yl)-2-morpholin-4-ylpyrimidin-4-yl](4-chlorophenyl)amine] | 500 to 1000 nM |
| COCCNc1nc2ccc(-c3cc(Nc4ccc(Cl)cc4)nc(N4CCOCC4)n3)cc2n1C [(4-chlorophenyl)(6-{2-[(2-methoxyethyl)amino]-1-methylbenzimidazol-6-yl}-2-morpholin-4-ylpyrimidin-4-yl)amine] | 500 to 1000 nM |
| Cn1cnc2ccc(-c3cc(Nc4ccc(C(=O)NCC5CC5)cc4)nc(N4CCOCC4)n3)cc21 [N-(cyclopropylmethyl)(4-{[6-(1-methylbenzimidazol-6-yl)-2-morpholin-4-ylpyrimidin-4-yl]amino}phenyl)carboxamide] | 500 to 1000 nM |
| Cc1nn(C)c2cc(-c3cc(Nc4ccc(-c5nnc(C(C)C)[nH]5)cc4)nc(N4CCOCC4)n3)ccc12 [[6-(1,3-dimethyl(1H-indazol-6-yl))-2-morpholin-4-ylpyrimidin-4-yl]{4-[5-(methylethyl)(4H-1,2,4-triazol-3-yl)]phenyl}amine] | < 500 nM |
| Cc1nn(C)c2cc(-c3cc(Nc4ccc5ccn(C)c5c4)nc(N4CCOCC4)n3)ccc12 [[6-(1,3-dimethyl(1H-indazol-6-yl))-2-morpholin-4-ylpyrimidin-4-yl](1-methylindol-6-yl)amine] | < 500 nM |
| Cc1nn(C)c2cc(-c3cc(Nc4ccc(-c5ncc[nH]5)cc4)nc(N4CCOCC4)n3)ccc12 [[6-(1,3-dimethyl(1H-indazol-6-yl))-2-morpholin-4-ylpyrimidin-4-yl](4-imidazol-2-ylphenyl)amine] | < 500 nM |
| Cn1nc(CCN2CCOCC2)c2ccc(-c3nc(N4CCOCC4)nc(Nc4ccc(Cl)cc4)c3F)cc21 [(4-chlorophenyl){5-fluoro-6-[1-methyl-3-(2-morpholin-4-ylethyl)(1H-indazol-6-yl)]-2-morpholin-4-ylpyrimidin-4-yl}amine] | 1000 to 5000 nM |
| Cc1ccc(Nc2cc(-c3ccc4c(cnn4C)c3)nc(N3CCOCC3)n2)cc1 [[6-(1-methyl(1H-indazol-5-yl))-2-morpholin-4-ylpyrimidin-4-yl](4-methylphenyl)amine] | 1000 to 5000 nM |
| Clc1ccc(Nc2cc(-c3ccc4c(c3)ncn4CC3CC3)nc(N3CCOCC3)n2)cc1 [(4-chlorophenyl){6-[1-(cyclopropylmethyl)benzimidazol-5-yl]-2-morpholin-4-ylpyrimidin-4-yl}amine] | 500 to 1000 nM |
| Cc1nc2ccc(-c3cc(Nc4ccc(Cl)cc4)nc(N4CCOCC4)n3)cc2n1C1COC1 [(4-chlorophenyl)[6-(2-methyl-1-oxetan-3-ylbenzimidazol-6-yl)-2-morpholin-4-ylpyrimidin-4-yl]amine] | < 500 nM |
| CNC(=O)c1ccc(Nc2cc(-c3ccc4ncn(CCCN5CCOCC5)c4c3)nc(N3CCOCC3)n2)cc1 [N-methyl[4-({2-morpholin-4-yl-6-[1-(3-morpholin-4-ylpropyl)benzimidazol-6-yl]pyrimidin-4-yl}amino)phenyl]carboxamide] | 1000 to 5000 nM |
| Cn1ccc2ccc(Nc3cc(-c4ccc5c(CCN6C(=O)c7ccccc7C6=O)nn(C)c5c4)nc(N4CCOCC4)n3)cc21 [2-[2-(1-methyl-6-{6-[(1-methylindol-6-yl)amino]-2-morpholin-4-ylpyrimidin-4-yl}-1H-indazol-3-yl)ethyl]benzo[c]azoline-1,3-dione] | 500 to 1000 nM |
| Clc1ccc(Nc2cc(-c3ccc4cnn(C5CCC5)c4c3)nc(N3CCOCC3)n2)cc1 [(4-chlorophenyl)[6-(1-cyclobutyl(1H-indazol-6-yl))-2-morpholin-4-ylpyrimidin-4-yl]amine] | 1000 to 5000 nM |
| Cn1ccnc1-c1ccc(Nc2cc(-c3ccc4c(CCN5CCOCC5)nn(C)c4c3)nc(N3CCOCC3)n2)cc1 [[4-(1-methylimidazol-2-yl)phenyl]{6-[1-methyl-3-(2-morpholin-4-ylethyl)(1H-indazol-6-yl)]-2-morpholin-4-ylpyrimidin-4-yl}amine] | 500 to 1000 nM |
| Cn1ncc2ncc(-c3cc(Nc4ccc(-c5nnc[nH]5)cc4)nc(N4CCOCC4)n3)cc21 [(4-(4H-1,2,4-triazol-3-yl)phenyl)[6-(1-methylpyrazolo[4,5-b]pyridin-6-yl)-2-morpholin-4-ylpyrimidin-4-yl]amine] | < 500 nM |
| Cn1nc(CCCN2CCOCC2)c2ccc(-c3cc(Nc4ccc(Cl)cc4)nc(N4CCOCC4)n3)cc21 [(4-chlorophenyl){6-[1-methyl-3-(3-morpholin-4-ylpropyl)(1H-indazol-6-yl)]-2-morpholin-4-ylpyrimidin-4-yl}amine] | 1000 to 5000 nM |
| Cn1ncc2ccc(-c3cc(Nc4cccc(-c5ncco5)c4)nc(N4CCOCC4)n3)cc21 [[6-(1-methyl(1H-indazol-6-yl))-2-morpholin-4-ylpyrimidin-4-yl](3-(1,3-oxazol-2-yl)phenyl)amine] | 1000 to 5000 nM |
| COc1cc(Nc2cc(-c3ccc4c(cnn4C)c3)nc(N3CCOCC3)n2)ccn1 [(2-methoxy(4-pyridyl))[6-(1-methyl(1H-indazol-5-yl))-2-morpholin-4-ylpyrimidin-4-yl]amine] | 1000 to 5000 nM |
| CN(C)CCCn1ncc2ccc(-c3cc(Nc4ccc(Cl)cc4)nc(N4CCOCC4)n3)cc21 [[3-(6-{6-[(4-chlorophenyl)amino]-2-morpholin-4-ylpyrimidin-4-yl}(1H-indazolyl))propyl]dimethylamine] | 1000 to 5000 nM |
| Cn1cnc2ccc(-c3cc(Nc4ccc(F)cc4)nc(N4CCOCC4)n3)cc21 [(4-fluorophenyl)[6-(1-methylbenzimidazol-6-yl)-2-morpholin-4-ylpyrimidin-4-yl]amine] | 1000 to 5000 nM |
| Cc1nnc(-c2ccc(Nc3cc(-c4ccc5nc(C)n(CC6CC6)c5c4)nc(N4CCOCC4)n3)cc2)[nH]1 [{6-[1-(cyclopropylmethyl)-2-methylbenzimidazol-6-yl]-2-morpholin-4-ylpyrimidin-4-yl}[4-(5-methyl(4H-1,2,4-triazol-3-yl))phenyl]amine] | < 500 nM |
